{
  "source": "patent US9862684B2",
  "about": "“Modulation of K2P channels” (The Regents of the University of California, priority 2013, dated 2018)",
  "type_in_all_cases": "cell-based, Murine",
  "key": {"K2P2.1 (TREK-1) [1]": {"biological_target": "T1, K2P2.1 (TREK-1) (Mus musculus, UniProt P97438)", "T1 construct": "expressed in transfected cells; host or cells: Xenopus oocytes (cRNA injection, pGEMHE/pMO)", "T1 sequence (P97438 1-411 isoform P97438-2)": "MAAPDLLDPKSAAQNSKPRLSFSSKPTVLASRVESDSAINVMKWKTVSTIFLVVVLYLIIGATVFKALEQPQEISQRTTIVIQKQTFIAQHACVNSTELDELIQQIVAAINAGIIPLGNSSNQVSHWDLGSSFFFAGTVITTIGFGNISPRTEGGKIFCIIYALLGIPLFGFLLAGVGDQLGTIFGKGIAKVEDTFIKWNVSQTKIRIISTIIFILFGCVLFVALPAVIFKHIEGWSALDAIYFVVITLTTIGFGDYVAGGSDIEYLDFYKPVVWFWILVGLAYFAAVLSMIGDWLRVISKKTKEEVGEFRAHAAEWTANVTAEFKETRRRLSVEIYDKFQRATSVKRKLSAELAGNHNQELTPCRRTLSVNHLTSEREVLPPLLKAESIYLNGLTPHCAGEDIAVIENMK", "experiment": "Whole cell patch clamp of HEK-293T cells expressing K2P2.1 (TREK-1)", "description": "(§1) Murine K2P channels were cloned into pGEMHE/pMO {Bagriantsev, 2011}, IRES-GFP (Invitrogen), or pYES2-MET25 (high copy 2μ, URA3) {Minor, 1999} for expression in oocytes, HEK-293T cells, and yeast, respectively, using standard molecular biology procedures, and verified by DNA sequencing.\n(§2) Two-electrode voltage clamp recordings were performed from defolliculated stage V-VI Xenopus oocytes 24-48 hours after injection with 0.015-6.0 ng cRNA, using microelectrodes (0.3-3.0 MΩ) filled with 3M KCl. Data was acquired using the GeneClamp 500B (MDS Analytical Technologies) amplifier controlled by the pClamp software (Molecular Devices), and digitized at 1 kHz using Digidata 1332A (MDS Analytical Technologies). Recording solutions (mM): 2K (96 NaCl, 2 KCl, 1.8 CaCl2, 2 MgCl2), 90K (90 KCl, 8 NaCl, 1.8 CaCl2, 2 MgCl2), were buffered 5 mM HEPES pH 7.4. For K2P recordings, currents we elicited by a 1 second long ramp from −150 to +50 mV from a holding potential of −80 mV (2K), or −100 to +50 mV from a holding potential of 0 mV (90K). For KCNQ2 recordings, currents were elicited by a step protocol from −120 to 60 mV, in 20 mV increments, from a holding potential of −80 mV. Patch-clamp recordings from HEK-293T cells were performed using microelectrodes (2-3 MΩ) filled with 1M KCl. Data was acquired using the Axopatch 200B amplifier controlled by pClamp software, and digitized at 1 kHz using Digidata 1332A. Recording solutions (mM): intracellular (145 KCl, 5 EGTA, 3 MgCl2,) extracellular (150 NaCl, 5 KCl, 3 MgCl2, 1 CaCl2) were buffered with 5 mM HEPES pH 7.2 and 7.4, respectively. Currents were elicited by a 1 second long ramp from −150 to +50 mV from a holding potential of −80 mV. Data were fitted with a modified Hill's equation: I=Imin+(Imax−Imin)/(1+10^((Log EC50−Log [C])*H)), where Imax and Imin are maximal and minimal current values, respectively, EC50 is a half-maximal effective concentration of the compound, and H is the Hill coefficient."}, "K2P2.1 (TREK-1) [2]": {"biological_target": "T1, K2P2.1 (TREK-1)", "experiment": "Two-electrode voltage clamp of Xenopus oocytes expressing K2P2.1 (TREK-1)", "description": "Two-electrode voltage clamp recordings were performed from defolliculated stage V-VI Xenopus oocytes 24-48 hours after injection with 0.015-6.0 ng cRNA, using microelectrodes (0.3-3.0 MΩ) filled with 3M KCl. […] Recording solutions (mM): 2K (96 NaCl, 2 KCl, 1.8 CaCl2, 2 MgCl2), 90K (90 KCl, 8 NaCl, 1.8 CaCl2, 2 MgCl2), were buffered 5 mM HEPES pH 7.4. For K2P recordings, currents we elicited by a 1 second long ramp from −150 to +50 mV from a holding potential of −80 mV (2K), or −100 to +50 mV from a holding potential of 0 mV (90K). For KCNQ2 recordings, currents were elicited by a step protocol from −120 to 60 mV, in 20 mV increments, from a holding potential of −80 mV. […] Currents were elicited by a 1 second long ramp from −150 to +50 mV from a holding potential of −80 mV."}, "K2P9.1 (TASK-3)": {"biological_target": "T2, K2P9.1 (TASK-3) (Mus musculus, UniProt Q3LS21)", "T2 construct": "expressed in transfected cells; host or cells: Xenopus oocytes", "T2 sequence (Q3LS21 whole entry)": "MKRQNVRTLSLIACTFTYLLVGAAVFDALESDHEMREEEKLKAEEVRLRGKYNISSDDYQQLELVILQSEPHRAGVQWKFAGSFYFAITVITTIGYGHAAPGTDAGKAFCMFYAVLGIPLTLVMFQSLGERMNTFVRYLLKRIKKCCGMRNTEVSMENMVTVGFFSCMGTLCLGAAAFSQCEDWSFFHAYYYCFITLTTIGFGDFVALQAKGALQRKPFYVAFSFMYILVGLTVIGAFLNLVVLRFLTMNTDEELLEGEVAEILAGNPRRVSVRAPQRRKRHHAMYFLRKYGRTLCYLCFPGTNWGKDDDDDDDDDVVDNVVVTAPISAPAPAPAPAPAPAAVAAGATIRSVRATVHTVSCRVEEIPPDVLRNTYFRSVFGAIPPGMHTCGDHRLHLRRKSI", "experiment": "Two-electrode voltage clamp, Xenopus oocytes expressing K2P9.1 (TASK-3)", "description": "FIG. 7 ML67-33 is a selective activator of heat- and mechanosensitive K2P channels. a-f, Exemplar I-V curves showing the effect of ML67-33 on a, K2P10.1 (TREK-2), b, K2P4.1 (TRAAK), c, K2P3.1 (TASK-1), d, K2P9.1 (TASK-3), e, K2P5.1 (TASK-2), and f, K2P18.1 (TRESK) measured in Xenopus oocytes in 2 mM [K^+]o pH 7.4. Currents were elicited by a voltage ramp from −150 to 50 mV, from a holding potential of −80 mV. g, Quantification of the effect of ML67-33 on the indicated channels. Data (mean±s.e., n≧6, N≧2) was normalized to basal channel activity and fitted to the Hill equation. […] Error bars indicate s.e., n≧6, N≧2.\nas §1\nas §2, with “Recording solutions (mM): intracellular (145 KCl, 5 EGTA, 3 MgCl2,) extracellular (150 NaCl, 5 KCl, 3 MgCl2, 1 CaCl2) were buffered with 5 mM HEPES pH 7.2 and 7.4, respectively. Currents were elicited by a 1 second long ramp from −150 to +50 mV from a holding potential of −80 mV. Data were fitted with a modified Hill's equation: I=Imin+(Imax−Imin)/(1+10^((Log EC50−Log [C])*H)), where Imax and Imin are maximal and minimal current values, respectively, EC50 is a half-maximal effective concentration of the compound, and H is the Hill coefficient.” left out"}},
  "data": [
    {"smiles": "CC1(C)c2cc(Cl)ccc2N(CCc2nnn[nH]2)c2ccc(Cl)cc21", "note": "[ML67-33, 2,7-dichloro-9,9-dimethyl-10-[2-(1H-tetrazol-5-yl)ethyl]acridine]", "values": [
      {"measurement": "Emax (fold)", "setting": "K2P2.1 (TREK-1) [1]; HEK-293T cells, whole cell patch clamp, at 100 μM per FIG. 4 legend", "value": "11.4±1.1", "unit": "fold"},
      {"measurement": "EC50", "setting": "K2P2.1 (TREK-1) [1]; HEK-293T cells, whole cell patch clamp, marked * in Table 1", "value": "9.7 ± 1.2", "unit": "µM"},
      {"measurement": "time of half-maximal activation (t1/2act)", "setting": "K2P2.1 (TREK-1) [1]; whole-cell, HEK-293T, 0 mV", "value": "4.1 ± 0.5", "unit": "s"},
      {"measurement": "time of return to baseline following washout (t1/2wash)", "setting": "K2P2.1 (TREK-1) [1]; whole-cell, HEK-293T, 0 mV", "value": "3.9 ± 0.5", "unit": "s"},
      {"measurement": "EC50", "setting": "K2P2.1 (TREK-1) [2]; Xenopus oocytes, 2 mM [K+]o pH 7.4, data at 0 mV, normalized to basal activity, Hill fit, read-out: EC50", "value": "36.3 ± 1.04", "unit": "µM"},
      {"measurement": "Emax (fold) at 100 μM", "setting": "K2P2.1 (TREK-1) [2]; Xenopus oocytes, at 100 μM (FIG. 4, 7 legends), marked ** in Table 1, footnote not given", "value": "11.1±0.4", "unit": "fold"},
      {"measurement": "Emax (fold)", "setting": "K2P2.1 (TREK-1) [2]; Xenopus oocytes, fold over basal current, no concentration stated", "value": "11.1 ± 0.4", "unit": "fold"},
      {"measurement": "response of K2P2.1 (TREK-1) to ML67-33 with C-type gate stabilized (in words)", "setting": "K2P2.1 (TREK-1) [2]; high extracellular potassium, 90 mM [K+]o", "value": "reduced the response"},
      {"measurement": "EC50", "setting": "K2P2.1 (TREK-1) [2]; spans oocytes and HEK cells, read-out: concentration at which the compound acts (EC50 range)", "value": "9.7 to 36.3", "unit": "µM"},
      {"measurement": "functional effect (in words)", "setting": "K2P9.1 (TASK-3); applied at 100 μM", "value": "little or no functional effects"},
      {"measurement": "Emax at 100 μM", "setting": "K2P9.1 (TASK-3); at 100 μM (FIG. 7 legend)", "value": "2.0±0.1"},
      {"measurement": "Emax (fold) at 150 μM", "setting": "K2P9.1 (TASK-3); at 150 μM", "value": "2.1 ± 0.4", "unit": "at 150 μM fold"}
    ]}
  ]
}
